Experimental data taken from patent US8653263B2 (Janssen Pharmaceutica, priority 2009, dated 2014).

Molecular target: human orexin-2 receptor (Homo sapiens (Human), UniProt O43614)
Experiment: Human orexin 2 receptor radioligand binding ([3H]-EMPA competition)
Conditions: HEK293 cells stably expressing human orexin-2 receptor; [3H]-EMPA 5 nM final; apparent Ki=IC50/(1+C/Kd), Kd=2 nM; read-out: OR 2 Ki

human orexin-2 receptor, sequence (O43614 whole entry): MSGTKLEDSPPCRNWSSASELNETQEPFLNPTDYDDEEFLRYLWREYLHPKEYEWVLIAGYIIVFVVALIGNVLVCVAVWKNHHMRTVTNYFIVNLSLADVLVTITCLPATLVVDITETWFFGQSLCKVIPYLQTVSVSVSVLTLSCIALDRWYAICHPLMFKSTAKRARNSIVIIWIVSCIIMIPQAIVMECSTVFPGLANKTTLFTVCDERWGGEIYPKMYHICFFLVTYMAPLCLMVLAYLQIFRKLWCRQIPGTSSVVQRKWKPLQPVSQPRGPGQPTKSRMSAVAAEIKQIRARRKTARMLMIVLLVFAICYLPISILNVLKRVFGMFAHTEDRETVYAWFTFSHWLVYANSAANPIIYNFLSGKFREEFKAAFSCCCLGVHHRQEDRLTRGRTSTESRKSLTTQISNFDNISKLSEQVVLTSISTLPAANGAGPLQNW

Row | Compound | Ki [nM]
1 | Cc1cc(N2CC3CN(C(=O)c4ccccc4-n4nccn4)CC3C2)nc(C)n1 (stereo not drawn) [Example 122, 2-(2,6-Dimethylpyrimidin-4-yl)-5-{[2-(2H-1,2,3-triazol-2-yl)phenyl]carbonyl}octahydropyrrolo[3,4-c]pyrrole] | 865
2 | Cc1ccc(-n2nccn2)c(C(=O)N2CC3CN(c4nc(C)cnc4C)CC3C2)c1 (stereo not drawn) [Example 123, [5-(3,6-Dimethyl-pyrazin-2-yl)-hexahydro-pyrrolo[3,4-c]pyrrol-2-yl]-(5-methyl-2-[1,2,3]triazol-2-yl-phenyl)-methanone] | 44
3 | Cc1cc(N(C)C)nc(N2CC3CN(C(=O)c4cc(F)ccc4-n4nccn4)CC3C2)n1 (stereo not drawn) [Example 124, 2-[5-{[5-Fluoro-2-(2H-1,2,3-triazol-2-yl)phenyl]carbonyl}hexahydropyrrolo[3,4-c]pyrrol-2(1H)-yl]-N,N,6-trimethylpyrimidin-4-amine] | 422
4 | COc1ccc(N2CC3CN(C(=O)c4ccccc4-c4cccs4)CC3C2)nc1 (stereo not drawn) [Example 125, 2-(5-Methoxypyridin-2-yl)-5-[(2-thiophen-2-ylphenyl)carbonyl]octahydropyrrolo[3,4-c]pyrrole] | 901
5 | CCOc1ccc2ccccc2c1C(=O)N1CC2CN(c3nccc(-c4ccccc4)n3)CC2C1 (stereo not drawn) [Example 126, 2-[(2-Ethoxynaphthalen-1-yl)carbonyl]-5-(4-phenylpyrimidin-2-yl)octahydro pyrrolo[3,4-c]pyrrole] | 95
6 | Cc1ccc(-n2nccn2)c(C(=O)N2CC3CN(c4nccc(-c5ccccc5)n4)CC3C2)c1 (stereo not drawn) [Example 127, 2-{[5-Methyl-2-(2H-1,2,3-triazol-2-yl)phenyl]carbonyl}-5-(4-phenylpyrimidin-2-yl)octahydropyrrolo[3,4-c]pyrrole] | 55
7 | COc1cc(OC)nc(N2CC3CN(C(=O)c4cc(C)ccc4-n4nccn4)CC3C2)n1 (stereo not drawn) [Example 129, 2-(4,6-Dimethoxypyrimidin-2-yl)-5-{[5-methyl-2-(2H-1,2,3-triazol-2-yl)phenyl]carbonyl}octahydropyrrolo[3,4-c]pyrrole] | 111
8 | O=C(c1ccccc1-n1nccn1)N1CC2CN(c3nccc(-c4ccccc4)n3)CC2C1 (stereo not drawn) [Example 131, 2-(4-Phenylpyrimidin-2-yl)-5-{[2-(2H-1,2,3-triazol-2-yl)phenyl]carbonyl}octahydro pyrrolo[3,4-c]pyrrole] | 75
9 | Cc1cc(C)nc(N2CC3CN(C(=O)c4nc(C)sc4-c4ccccc4F)CC3C2)n1 (stereo not drawn) [Example 132, 2-(4,6-Dimethylpyrimidin-2-yl)-5-{[5-(2-fluorophenyl)-2-methyl-1,3-thiazol-4-yl]carbonyl}octahydropyrrolo[3,4-c]pyrrole] | 125
10 | Cc1cccc(N2CC3CN(C(=O)c4ccccc4-c4cccs4)CC3C2)n1 (stereo not drawn) [Example 134, 2-(6-Methylpyridin-2-yl)-5-[(2-thiophen-2-ylphenyl)carbonyl]octahydropyrrolo[3,4-c]pyrrole] | 102
11 | Cc1ccnc(N2CC3CN(C(=O)c4ccccc4-n4nccn4)CC3C2)n1 (stereo not drawn) [Example 135, 2-(4-Methylpyrimidin-2-yl)-5-{[2-(2H-1,2,3-triazol-2-yl)phenyl]carbonyl}octahydro pyrrolo[3,4-c]pyrrole] | 90
12 | Cc1ccnc(N2CC3CN(C(=O)c4ccccc4-c4cccs4)CC3C2)c1 (stereo not drawn) [Example 136, 2-(4-Methylpyridin-2-yl)-5-[(2-thiophen-2-ylphenyl)carbonyl]octahydropyrrolo[3,4-c]pyrrole] | 104
13 | COc1cccc(N2CC3CN(C(=O)c4ccccc4-c4cccs4)CC3C2)n1 (stereo not drawn) [Example 137, 2-(6-Methoxypyridin-2-yl)-5-[(2-thiophen-2-ylphenyl)carbonyl]octahydro pyrrolo[3,4-c]pyrrole] | 50
14 | COc1cc(OC)nc(N2CC3CN(C(=O)c4ccccc4-c4cccs4)CC3C2)n1 (stereo not drawn) [Example 138, 2-(4,6-Dimethoxypyrimidin-2-yl)-5-[(2-thiophen-2-ylphenyl)carbonyl]octahydro pyrrolo[3,4-c]pyrrole] | 30
15 | O=C(c1ccccc1-c1cccs1)N1CC2CN(c3nc4ccccc4o3)CC2C1 (stereo not drawn) [Example 139, 2-{5-[(2-Thiophen-2-ylphenyl)carbonyl]hexahydropyrrolo[3,4-c]pyrrol-2(1H)-yl}-1,3-benzoxazole] | 63
16 | O=C(c1ccccc1-c1cccs1)N1CC2CN(c3ncccc3C(F)(F)F)CC2C1 (stereo not drawn) [Example 140, 2-[(2-Thiophen-2-ylphenyl)carbonyl]-5-[3-(trifluoromethyl)pyridin-2-yl]octahydro pyrrolo[3,4-c]pyrrole] | 119
17 | O=C(c1ccccc1-c1nnc[nH]1)N1CC2CN(c3nccc(-c4ccccc4)n3)CC2C1 (stereo not drawn) [Example 141, [5-(4-Phenyl-pyrimidin-2-yl)-hexahydro-pyrrolo[3,4-c]pyrrol-2-yl]-[2-(4H-[1,2,4]triazol-3-yl)-phenyl]-methanone] | 1030

The remaining lines, values ahead:

Row | Ki [nM] | Compound
18 | 315 | COc1cc(OC)nc(N2CC3CN(C(=O)c4nc(C)sc4-c4ccccc4F)CC3C2)n1 (stereo not drawn) [Example 142, 2-(4,6-Dimethoxypyrimidin-2-yl)-5-{[5-(2-fluorophenyl)-2-methyl-1,3-thiazol-4-yl]carbonyl}octahydropyrrolo[3,4-c]pyrrole]
19 | 81 | O=C(c1ccccc1-n1nccn1)N1CC2CN(c3nccc(-c4cccs4)n3)CC2C1 (stereo not drawn) [Example 143, 2-(4-Thiophen-2-ylpyrimidin-2-yl)-5-{[2-(2H-1,2,3-triazol-2-yl)phenyl]carbonyl}octahydropyrrolo[3,4-c]pyrrole]
20 | 87 | O=C(c1ccccc1-n1nccn1)N1CC2CN(c3nc4ccccc4o3)CC2C1 (stereo not drawn) [Example 144, 2-[5-{[2-(2H-1,2,3-Triazol-2-yl)phenyl]carbonyl}hexahydropyrrolo[3,4-c]pyrrol-2(1H)-yl]-1,3-benzoxazole]
21 | 45 | CCOc1ccc2ccccc2c1C(=O)N1CC2CN(c3cnc4ccccc4n3)CC2C1 (stereo not drawn) [Example 145, 2-{5-[(2-Ethoxynaphthalen-1-yl)carbonyl]hexahydropyrrolo[3,4-c]pyrrol-2(1H)-yl}quinoxaline]
22 | 27 | O=C(c1cc(F)ccc1-c1ncccn1)N1CC2CN(c3cnc4ccccc4n3)CC2C1 (stereo not drawn) [Example 146, 2-{5-[(5-Fluoro-2-pyrimidin-2-ylphenyl)carbonyl]hexahydropyrrolo[3,4-c]pyrrol-2(1H)-yl}quinoxaline]
23 | 85 | CCOc1cccc(N2CC3CN(C(=O)c4ccccc4-n4nccn4)CC3C2)n1 (stereo not drawn) [Example 147, 2-(6-Ethoxypyridin-2-yl)-5-{[2-(2H-1,2,3-triazol-2-yl)phenyl]carbonyl}octahydro pyrrolo[3,4-c]pyrrole]
24 | 129 | O=C(c1cc(F)ccc1-c1ncccn1)N1CC2CN(c3nccc(C(F)(F)F)n3)CC2C1 (stereo not drawn) [Example 148, 2-[(5-Fluoro-2-pyrimidin-2-ylphenyl)carbonyl]-5-[4-(trifluoromethyl)pyrimidin-2-yl]octahydropyrrolo[3,4-c]pyrrole]
25 | 173 | O=C(c1ccccc1-n1nccn1)N1CC2CN(c3cnc4ccccc4n3)CC2C1 (stereo not drawn) [Example 149, 2-[5-{[2-(2H-1,2,3-Triazol-2-yl)phenyl]carbonyl}hexahydropyrrolo[3,4-c]pyrrol-2(1H)-yl]quinoxaline]
26 | 92 | COc1ccnc(N2CC3CN(C(=O)c4cc(F)ccc4-c4ncccn4)CC3C2)n1 (stereo not drawn) [Example 150, 2-[(5-Fluoro-2-pyrimidin-2-ylphenyl)carbonyl]-5-(4-methoxypyrimidin-2-yl)octahydropyrrolo[3,4-c]pyrrole]
27 | 184 | O=C(c1ccccc1-n1nccn1)N1CC2CN(c3nccc(-c4ccco4)n3)CC2C1 (stereo not drawn) [Example 151, 2-(4-Furan-2-ylpyrimidin-2-yl)-5-{[2-(2H-1,2,3-triazol-2-yl)phenyl]carbonyl}octahydropyrrolo[3,4-c]pyrrole]
28 | 125 | O=C(c1ccccc1-n1nccn1)N1CC2CN(c3ccc(F)cn3)CC2C1 (stereo not drawn) [Example 152, 2-(5-Fluoropyridin-2-yl)-5-{[2-(2H-1,2,3-triazol-2-yl)phenyl]carbonyl}octahydro pyrrolo[3,4-c]pyrrole]
29 | 75 | O=C(c1ccccc1-n1nccn1)N1CC2CN(c3nccc(C(F)(F)F)n3)CC2C1 (stereo not drawn) [Example 153, 2-{[2-(2H-1,2,3-Triazol-2-yl)phenyl]carbonyl}-5-[4-(trifluoromethyl)pyrimidin-2-yl]octahydropyrrolo[3,4-c]pyrrole]
30 | 241 | COc1ccnc(N2CC3CN(C(=O)c4ccccc4-c4ncn[nH]4)CC3C2)n1 (stereo not drawn) [Example 154, 2-(4-Methoxypyrimidin-2-yl)-5-{[2-(1H-1,2,4-triazol-5-yl)phenyl]carbonyl}octahydropyrrolo[3,4-c]pyrrole]
31 | 33 | Cc1cnc(C)c(N2CC3CN(C(=O)c4ccccc4-n4nccn4)CC3C2)n1 (stereo not drawn) [Example 155, 2-(3,6-Dimethylpyrazin-2-yl)-5-{[2-(2H-1,2,3-triazol-2-yl)phenyl]carbonyl}octahydropyrrolo[3,4-c]pyrrole]
32 | 39 | COc1ccnc(N2CC3CN(C(=O)c4ccccc4-n4nccn4)CC3C2)n1 (stereo not drawn) [Example 156, 2-(4-Methoxypyrimidin-2-yl)-5-{[2-(2H-1,2,3-triazol-2-yl)phenyl]carbonyl}octahydropyrrolo[3,4-c]pyrrole]
33 | 55 | Cc1cncc(N2CC3CN(C(=O)c4ccc(F)cc4-n4nccn4)CC3C2)n1 (stereo not drawn) [Example 158, 2-{[4-Fluoro-2-(2H-1,2,3-triazol-2-yl)phenyl]carbonyl}-5-(6-methylpyrazin-2-yl)octahydropyrrolo[3,4-c]pyrrole]
34 | 45 | COc1ccnc(N2CC3CN(C(=O)c4ccc(F)cc4-n4nccn4)CC3C2)n1 (stereo not drawn) [Example 159, 2-{[4-Fluoro-2-(2H-1,2,3-triazol-2-yl)phenyl]carbonyl}-5-(4-methoxypyrimidin-2-yl)octahydropyrrolo[3,4-c]pyrrole]
35 | 58 | COc1cc(OC)nc(N2CC3CN(C(=O)c4ccc(F)cc4-n4nccn4)CC3C2)n1 (stereo not drawn) [Example 160, 2-(4,6-Dimethoxypyrimidin-2-yl)-5-{[4-fluoro-2-(2H-1,2,3-triazol-2-yl)phenyl]carbonyl}octahydropyrrolo[3,4-c]pyrrole]
36 | 380 | COc1ccc(C(=O)N2CC3CN(c4nc5ccc(Cl)cc5s4)CC3C2)c(OC)c1 (stereo not drawn) [Example 163, 6-Chloro-2-{5-[(2,4-dimethoxyphenyl)carbonyl]hexahydropyrrolo[3,4-c]pyrrol-2(1H)-yl}-1,3-benzothiazole]
